Results on seven compounds are retold here after patent publication US9340590B2 (priority 2011, dated 2016).

Assay in all cases: cell-based
In test [1] the target is T1, hNav1.3 (Homo sapiens, UniProt Q9NY46). Type of test: cell-based. The settings on record: for pIC50: Nav1.3 Use IC50.
For test [2], the target named is T2, hNav1.7 (Homo sapiens, UniProt Q15858). The settings on record: Nav1.7 Use IC50.
Test [3] deals with T1, hNav1.3. Particulars: IonWorks Quattro; clamped to −110 mV, depolarized to −10 mV, 5 min after compound; n=2; read-out: IWQ Use Nav1.3.
For test [4], the target named is T2, hNav1.7. Type of test: cell-based. The settings on record: IonWorks Quattro; clamped to −110 mV, depolarized to −10 mV, 5 min after compound; n=2; read-out: IWQ Use Nav1.7. A general note: In patch-clamp work, channel activity is measured electrically.
A further test concerns the target hNav1.5 (Homo sapiens, UniProt Q14524). The settings on record: IonWorks Quattro; clamped to −110 mV, depolarized to −10 mV, 5 min after compound; n=2; read-out: IWQ Use Nav1.5.

pIC50: −log10 of the molar value. Like-named read-outs stand apart in the source and are kept apart here. Positions of bridges follow the written chain, without caps; N, C: chain ends. Residues, ends and D or L forms follow the SMILES beside them.

T2 sequence (Q15858 whole entry, looked up): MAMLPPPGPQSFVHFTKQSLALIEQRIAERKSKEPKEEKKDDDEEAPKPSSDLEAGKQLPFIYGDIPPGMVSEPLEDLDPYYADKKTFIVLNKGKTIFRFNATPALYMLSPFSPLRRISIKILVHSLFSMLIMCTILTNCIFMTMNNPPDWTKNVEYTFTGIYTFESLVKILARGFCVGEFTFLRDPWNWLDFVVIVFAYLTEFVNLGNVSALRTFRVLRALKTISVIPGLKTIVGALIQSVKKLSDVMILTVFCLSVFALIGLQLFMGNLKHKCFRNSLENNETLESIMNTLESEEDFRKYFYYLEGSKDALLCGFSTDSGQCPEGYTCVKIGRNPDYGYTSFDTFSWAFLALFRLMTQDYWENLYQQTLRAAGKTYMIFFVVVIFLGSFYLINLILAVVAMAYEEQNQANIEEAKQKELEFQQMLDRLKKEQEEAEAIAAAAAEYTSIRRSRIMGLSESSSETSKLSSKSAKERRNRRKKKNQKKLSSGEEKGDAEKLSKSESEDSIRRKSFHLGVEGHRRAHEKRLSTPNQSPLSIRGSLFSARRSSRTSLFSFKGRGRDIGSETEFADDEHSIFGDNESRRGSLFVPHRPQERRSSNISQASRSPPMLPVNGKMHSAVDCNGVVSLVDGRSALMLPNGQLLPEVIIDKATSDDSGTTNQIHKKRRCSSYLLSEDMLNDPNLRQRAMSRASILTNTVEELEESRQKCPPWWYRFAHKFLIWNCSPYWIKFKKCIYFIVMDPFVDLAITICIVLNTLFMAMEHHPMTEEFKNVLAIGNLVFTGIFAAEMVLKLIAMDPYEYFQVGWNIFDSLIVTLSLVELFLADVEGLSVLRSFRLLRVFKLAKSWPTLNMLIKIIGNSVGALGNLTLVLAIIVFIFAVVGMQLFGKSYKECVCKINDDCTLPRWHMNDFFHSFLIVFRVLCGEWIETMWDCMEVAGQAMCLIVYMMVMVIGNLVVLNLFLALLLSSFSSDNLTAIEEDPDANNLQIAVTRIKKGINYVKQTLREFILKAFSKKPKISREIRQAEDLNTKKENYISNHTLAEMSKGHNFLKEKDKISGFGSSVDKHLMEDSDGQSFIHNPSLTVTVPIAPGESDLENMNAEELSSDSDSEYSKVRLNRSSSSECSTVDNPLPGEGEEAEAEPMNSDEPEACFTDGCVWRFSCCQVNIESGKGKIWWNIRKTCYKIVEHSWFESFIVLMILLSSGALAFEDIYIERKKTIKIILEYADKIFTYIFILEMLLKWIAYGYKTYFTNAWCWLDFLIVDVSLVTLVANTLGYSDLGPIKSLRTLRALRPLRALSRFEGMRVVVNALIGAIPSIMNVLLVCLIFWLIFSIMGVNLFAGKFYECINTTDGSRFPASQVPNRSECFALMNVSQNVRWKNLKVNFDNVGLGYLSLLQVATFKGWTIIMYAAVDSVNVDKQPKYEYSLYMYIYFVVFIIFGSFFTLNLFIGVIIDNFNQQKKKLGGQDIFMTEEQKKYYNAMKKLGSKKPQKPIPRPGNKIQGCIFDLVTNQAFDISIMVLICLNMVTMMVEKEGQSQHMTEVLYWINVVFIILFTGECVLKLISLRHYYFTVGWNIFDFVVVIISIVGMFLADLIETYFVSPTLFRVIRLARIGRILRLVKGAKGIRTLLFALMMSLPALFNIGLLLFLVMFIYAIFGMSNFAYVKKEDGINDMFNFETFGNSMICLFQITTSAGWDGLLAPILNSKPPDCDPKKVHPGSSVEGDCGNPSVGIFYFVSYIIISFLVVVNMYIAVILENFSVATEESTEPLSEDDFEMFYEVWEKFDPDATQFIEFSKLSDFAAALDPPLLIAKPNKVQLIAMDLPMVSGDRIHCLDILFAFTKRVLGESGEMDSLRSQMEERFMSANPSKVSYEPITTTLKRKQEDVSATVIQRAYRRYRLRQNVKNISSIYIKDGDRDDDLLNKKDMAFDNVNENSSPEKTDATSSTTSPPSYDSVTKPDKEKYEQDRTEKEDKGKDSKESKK
T1 sequence (Q9NY46 whole entry, looked up): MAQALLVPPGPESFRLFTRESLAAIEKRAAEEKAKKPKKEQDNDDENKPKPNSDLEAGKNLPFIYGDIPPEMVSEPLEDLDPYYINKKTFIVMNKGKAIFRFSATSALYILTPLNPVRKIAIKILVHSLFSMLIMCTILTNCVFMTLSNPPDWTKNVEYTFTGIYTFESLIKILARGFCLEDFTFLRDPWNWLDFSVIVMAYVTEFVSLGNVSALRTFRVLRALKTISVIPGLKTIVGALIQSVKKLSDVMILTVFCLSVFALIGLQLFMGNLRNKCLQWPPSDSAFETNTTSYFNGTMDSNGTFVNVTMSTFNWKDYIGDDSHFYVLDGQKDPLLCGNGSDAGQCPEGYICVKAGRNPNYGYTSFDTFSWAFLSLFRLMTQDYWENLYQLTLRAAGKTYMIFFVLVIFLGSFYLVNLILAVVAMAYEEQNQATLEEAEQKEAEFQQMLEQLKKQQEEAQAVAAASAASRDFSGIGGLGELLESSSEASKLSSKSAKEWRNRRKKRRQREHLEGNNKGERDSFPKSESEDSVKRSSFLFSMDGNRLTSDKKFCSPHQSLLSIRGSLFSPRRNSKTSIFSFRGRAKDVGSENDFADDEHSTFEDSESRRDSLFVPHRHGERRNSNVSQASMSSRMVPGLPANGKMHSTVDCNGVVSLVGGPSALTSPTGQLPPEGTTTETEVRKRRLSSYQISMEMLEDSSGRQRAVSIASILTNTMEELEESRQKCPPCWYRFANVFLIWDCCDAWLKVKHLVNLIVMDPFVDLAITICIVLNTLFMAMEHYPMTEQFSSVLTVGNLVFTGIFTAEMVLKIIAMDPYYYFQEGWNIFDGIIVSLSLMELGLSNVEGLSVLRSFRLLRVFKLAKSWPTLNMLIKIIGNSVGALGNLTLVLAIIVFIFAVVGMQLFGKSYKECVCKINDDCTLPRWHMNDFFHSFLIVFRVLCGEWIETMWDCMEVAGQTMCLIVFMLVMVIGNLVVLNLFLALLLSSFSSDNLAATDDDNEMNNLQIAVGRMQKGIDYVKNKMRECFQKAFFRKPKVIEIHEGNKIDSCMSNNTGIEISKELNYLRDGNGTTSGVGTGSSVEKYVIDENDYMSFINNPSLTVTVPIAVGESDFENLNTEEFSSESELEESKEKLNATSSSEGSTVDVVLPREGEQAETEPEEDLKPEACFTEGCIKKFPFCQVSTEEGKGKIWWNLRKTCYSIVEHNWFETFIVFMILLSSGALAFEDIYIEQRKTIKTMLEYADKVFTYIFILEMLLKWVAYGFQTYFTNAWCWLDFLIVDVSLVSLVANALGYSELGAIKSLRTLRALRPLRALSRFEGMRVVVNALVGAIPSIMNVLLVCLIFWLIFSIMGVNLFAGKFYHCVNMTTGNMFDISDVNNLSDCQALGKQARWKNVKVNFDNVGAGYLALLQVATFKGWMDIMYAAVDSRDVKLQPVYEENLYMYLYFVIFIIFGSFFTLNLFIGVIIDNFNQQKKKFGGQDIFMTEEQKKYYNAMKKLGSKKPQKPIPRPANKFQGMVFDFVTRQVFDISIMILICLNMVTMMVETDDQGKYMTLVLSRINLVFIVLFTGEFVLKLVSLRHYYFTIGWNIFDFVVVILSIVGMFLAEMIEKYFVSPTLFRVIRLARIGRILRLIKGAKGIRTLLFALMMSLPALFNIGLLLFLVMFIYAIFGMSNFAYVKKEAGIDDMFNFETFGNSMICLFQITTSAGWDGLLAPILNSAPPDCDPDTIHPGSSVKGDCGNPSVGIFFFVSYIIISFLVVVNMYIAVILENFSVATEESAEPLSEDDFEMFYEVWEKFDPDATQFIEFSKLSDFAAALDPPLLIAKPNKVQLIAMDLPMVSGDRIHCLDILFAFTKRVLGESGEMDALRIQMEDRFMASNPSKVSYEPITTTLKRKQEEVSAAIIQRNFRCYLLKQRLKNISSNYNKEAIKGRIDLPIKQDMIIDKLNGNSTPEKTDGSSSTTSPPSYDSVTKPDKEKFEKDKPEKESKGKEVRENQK

Turning to `CC[C@H](C)[C@@H]1NC(=O)[C@@H]2CSSC[C@@H]3NC(=O)[C@H](C(C)C)NC(=O)[C@H](CC(C)C)NC(=O)[C@H](CC(N)=O)NC(=O)[C@@H]4CCCN4C(=O)[C@H](CCC(=O)O)NC(=O)[C@H](CSSC[C@H](NC(=O)[C@@H](N)CC(=O)O)C(=O)N[C@@H](CC(C)C)C(=O)NCC(=O)N[C@@H](Cc4ccccc4)C(=O)N[C@@H](CCSC)C(=O)N[C@@H](CCCNC(=N)N)C(=O)N[C@@H](CCCCN)C(=O)N2)NC(=O)[C@H](CSSC[C@@H](C(=O)N[C@@H](CCCCN)C(=O)N[C@@H](Cc2ccc(O)cc2)C(=O)N[C@H](C(=O)N[C@@H](Cc2ccccc2)C(N)=O)C(C)C)NC(=O)[C@H](Cc2c[nH]c4ccccc24)NC(=O)[C@H](CCCCN)NC(=O)[C@H](Cc2cnc[nH]2)NC(=O)[C@H]([C@@H](C)O)NC(=O)[C@H](CCCNC(=N)N)NC(=O)[C@H](CO)NC3=O)NC(=O)[C@H](CCCCN)NC(=O)[C@H](CC(=O)O)NC(=O)[C@H](CC(N)=O)NC(=O)[C@H](CC(=O)O)NC(=O)[C@@H]2CCCN2C1=O` [[Glu18]GpTx-1(1-34)] (H-DCLGFMRKCIPDNDKCCEPNLVCSRTHKWCKYVF-NH2; disulfide 2-17, 9-23, 16-30), the pIC50 was 7.01 at hNav1.3 [1] and 7.74 at hNav1.7 [2].

Take `CC[C@H](C)[C@@H]1NC(=O)[C@@H]2CSSC[C@@H]3NC(=O)[C@H](C(C)C)NC(=O)[C@H](CC(C)C)NC(=O)[C@H](CC(N)=O)NC(=O)[C@@H]4CCCN4C(=O)[C@H](CCCNC(=N)N)NC(=O)[C@H](CSSC[C@H](NC(=O)[C@@H](N)CC(=O)O)C(=O)N[C@@H](CC(C)C)C(=O)NCC(=O)N[C@@H](Cc4ccccc4)C(=O)N[C@@H](CCSC)C(=O)N[C@@H](CCCNC(=N)N)C(=O)N[C@@H](CCCCN)C(=O)N2)NC(=O)[C@H](CSSC[C@@H](C(=O)N[C@@H](CCCCN)C(=O)N[C@@H](Cc2ccc(O)cc2)C(=O)N[C@H](C(=O)N[C@@H](Cc2ccccc2)C(N)=O)C(C)C)NC(=O)[C@H](Cc2c[nH]c4ccccc24)NC(=O)[C@H](CCCCN)NC(=O)[C@H](Cc2cnc[nH]2)NC(=O)[C@H](CCC(=O)O)NC(=O)[C@H](CCCNC(=N)N)NC(=O)[C@H](CO)NC3=O)NC(=O)[C@H](CCCCN)NC(=O)[C@H](CC(=O)O)NC(=O)[C@H](CC(N)=O)NC(=O)[C@H](CC(=O)O)NC(=O)[C@@H]2CCCN2C1=O` [[Glu26]GpTx-1(1-34)] (H-DCLGFMRKCIPDNDKCCRPNLVCSREHKWCKYVF-NH2; disulfide 2-17, 9-23, 16-30): the values for the pIC50 against hNav1.3 [1] and at hNav1.7 [2] were 6.67 and 7.28, respectively.

For the compound `CC[C@H](C)[C@@H]1NC(=O)[C@@H]2CSSC[C@@H]3NC(=O)[C@H](C(C)C)NC(=O)[C@H](CC(C)C)NC(=O)[C@H](CC(N)=O)NC(=O)[C@@H]4CCCN4C(=O)[C@H](CCCNC(=N)N)NC(=O)[C@H](CSSC[C@H](NC(=O)[C@@H](N)CC(=O)O)C(=O)N[C@@H](CC(C)C)C(=O)NCC(=O)N[C@@H](C)C(=O)N[C@@H](Cc4ccccc4)C(=O)N[C@@H](CCCNC(=N)N)C(=O)N[C@@H](CCCCN)C(=O)N2)NC(=O)[C@H](CSSC[C@@H](C(=O)N[C@@H](CCCCN)C(=O)N[C@@H](Cc2ccc(O)cc2)C(=O)N[C@H](C(=O)N[C@@H](Cc2ccccc2)C(N)=O)C(C)C)NC(=O)[C@H](Cc2c[nH]c4ccccc24)NC(=O)[C@H](CCCNC(=N)N)NC(=O)[C@H](Cc2cnc[nH]2)NC(=O)[C@H](CC(C)C)NC(=O)[C@H](CCCNC(=N)N)NC(=O)[C@H](CO)NC3=O)NC(=O)[C@H](CCCCN)NC(=O)[C@H](CC(=O)O)NC(=O)[C@H](CC(N)=O)NC(=O)[C@H](CC(=O)O)NC(=O)[C@@H]2CCCN2C1=O` [[Ala5;Phe6;Leu26;Arg28]GpTx-1(1-34)] (H-DCLGAFRKCIPDNDKCCRPNLVCSRLHRWCKYVF-NH2; disulfide 2-17, 9-23, 16-30), the pIC50 at hNav1.3 [1] is 8.10; at hNav1.7 [2], 8.70.

`CC[C@H](C)[C@@H]1NC(=O)[C@@H]2CSSC[C@@H]3NC(=O)[C@H](C(C)C)NC(=O)[C@H](CC(C)C)NC(=O)[C@H](CC(N)=O)NC(=O)[C@@H]4CCCN4C(=O)[C@H](CCCNC(=N)N)NC(=O)[C@H](CSSC[C@H](NC(=O)[C@@H](N)CC(=O)O)C(=O)N[C@@H](CC(C)C)C(=O)NCC(=O)N[C@@H](Cc4ccccc4)C(=O)N[C@@H](CC(C)C)C(=O)N[C@@H](CCCNC(=N)N)C(=O)N[C@@H](CCCCN)C(=O)N2)NC(=O)[C@H](CSSC[C@@H](C(=O)N[C@@H](CCCCN)C(=O)N[C@@H](Cc2ccc(O)cc2)C(=O)N[C@H](C(=O)N[C@@H](Cc2ccccc2)C(N)=O)C(C)C)NC(=O)[C@H](Cc2c[nH]c4ccccc24)NC(=O)[C@H](CCCCN)NC(=O)[C@H](Cc2cnc[nH]2)NC(=O)[C@H]([C@@H](C)O)NC(=O)[C@H](CCCNC(=N)N)NC(=O)[C@H](CO)NC3=O)NC(=O)[C@H](CCCCN)NC(=O)[C@H](CC(=O)O)NC(=O)[C@H](CC(N)=O)NC(=O)[C@H](CC(=O)O)NC(=O)[C@@H]2CCCN2C1=O` [SEQ ID NO: 244] (H-DCLGFLRKCIPDNDKCCRPNLVCSRTHKWCKYVF-NH2; disulfide 2-17, 9-23, 16-30): the pIC50 on hNav1.3 [3] was 7.40; at hNav1.7 [4], 7.22; at hNav1.3 [1], 7.74; at hNav1.5 it was 5.19; against hNav1.7 [2], 7.59.

As for `CC[C@H](C)[C@@H]1NC(=O)[C@@H]2CSSC[C@@H]3NC(=O)[C@H](C(C)C)NC(=O)[C@H](CC(C)C)NC(=O)[C@H](CC(N)=O)NC(=O)[C@@H]4CCCN4C(=O)[C@H](CCCNC(=N)N)NC(=O)[C@H](CSSC[C@H](NC(=O)[C@@H](N)CC(=O)O)C(=O)N[C@@H](CC(C)C)C(=O)NCC(=O)N[C@@H](C)C(=O)N[C@@H](Cc4c[nH]c5ccccc45)C(=O)N[C@@H](CCCNC(=N)N)C(=O)N[C@@H](CCCCN)C(=O)N2)NC(=O)[C@H](CSSC[C@@H](C(=O)N[C@@H](CCCCN)C(=O)N[C@@H](Cc2ccc(O)cc2)C(=O)N[C@H](C(=O)N[C@@H](Cc2ccccc2)C(N)=O)C(C)C)NC(=O)[C@H](Cc2c[nH]c4ccccc24)NC(=O)[C@H](CCCCN)NC(=O)[C@H](Cc2cnc[nH]2)NC(=O)[C@H]([C@@H](C)O)NC(=O)[C@H](CCCNC(=N)N)NC(=O)[C@H](CO)NC3=O)NC(=O)[C@H](CCCCN)NC(=O)[C@H](CC(=O)O)NC(=O)[C@H](CC(N)=O)NC(=O)[C@H](CC(=O)O)NC(=O)[C@@H]2CCCN2C1=O` [[Ala5;Trp6]GpTx-1(1-34)] (H-DCLGAWRKCIPDNDKCCRPNLVCSRTHKWCKYVF-NH2; disulfide 2-17, 9-23, 16-30), the pIC50 on hNav1.3 [1] was 7.09; against hNav1.7 [2], 7.24.

On to `CC[C@H](C)[C@@H]1NC(=O)[C@@H]2CSSC[C@@H]3NC(=O)[C@H](C(C)C)NC(=O)[C@H](CC(C)C)NC(=O)[C@H](CC(N)=O)NC(=O)[C@@H]4CCCN4C(=O)[C@H](CCCNC(=N)N)NC(=O)[C@H](CSSC[C@H](NC(=O)[C@@H](N)CC(=O)O)C(=O)N[C@@H](CC(C)C)C(=O)NCC(=O)N[C@@H](Cc4ccc(I)cc4)C(=O)N[C@@H](CCSC)C(=O)N[C@@H](CCCNC(=N)N)C(=O)N[C@@H](CCCCN)C(=O)N2)NC(=O)[C@H](CSSC[C@@H](C(=O)N[C@@H](CCCCN)C(=O)N[C@@H](Cc2ccc(O)cc2)C(=O)N[C@H](C(=O)N[C@@H](Cc2ccccc2)C(N)=O)C(C)C)NC(=O)[C@H](Cc2c[nH]c4ccccc24)NC(=O)[C@H](CCCCN)NC(=O)[C@H](Cc2c[nH]cn2)NC(=O)[C@H]([C@@H](C)O)NC(=O)[C@H](CCCNC(=N)N)NC(=O)[C@H](CO)NC3=O)NC(=O)[C@H](CCCCN)NC(=O)[C@H](CC(=O)O)NC(=O)[C@H](CC(N)=O)NC(=O)[C@H](CC(=O)O)NC(=O)[C@@H]2CCCN2C1=O` [SEQ ID NO: 247], for which the pIC50 on hNav1.3 [3] is 7.70; at hNav1.7 [4] it was 6.80; against hNav1.3 [1], 7.05; at hNav1.5 it was 5.21; on hNav1.7 [2], 6.61. In addition, the “potency against NaV1.3, in words” value at hNav1.3 [1] is “increased potency”.

Consider `CC[C@H](C)[C@@H]1NC(=O)[C@@H]2CSSC[C@@H]3NC(=O)[C@H](C(C)C)NC(=O)[C@H](CC(C)C)NC(=O)[C@H](CC(N)=O)NC(=O)[C@@H]4CCCN4C(=O)[C@H](CCCNC(=N)N)NC(=O)[C@H](CSSC[C@H](NC(=O)[C@@H](N)CC(=O)O)C(=O)N[C@@H](CC(C)C)C(=O)NCC(=O)N[C@@H](C)C(=O)N[C@@H](CCSC)C(=O)N[C@@H](CCCNC(=N)N)C(=O)N[C@@H](CCCCN)C(=O)N2)NC(=O)[C@H](CSSC[C@@H](C(=O)N[C@@H](CCCCN)C(=O)N[C@@H](Cc2ccc(O)cc2)C(=O)N[C@H](C(=O)N[C@@H](Cc2ccccc2)C(N)=O)C(C)C)NC(=O)[C@H](Cc2c[nH]c4ccccc24)NC(=O)[C@H](CCCCN)NC(=O)[C@H](Cc2cnc[nH]2)NC(=O)[C@H](CC(C)C)NC(=O)[C@H](CCCNC(=N)N)NC(=O)[C@H](CO)NC3=O)NC(=O)[C@H](CCCCN)NC(=O)[C@H](CC(=O)O)NC(=O)[C@H](CC(N)=O)NC(=O)[C@H](CC(=O)O)NC(=O)[C@@H]2CCCN2C1=O` [[Ala5;Leu26]GpTx-1(1-34)] (H-DCLGAMRKCIPDNDKCCRPNLVCSRLHKWCKYVF-NH2; disulfide 2-17, 9-23, 16-30), for which the pIC50 against hNav1.3 [1] is 6.33; against hNav1.7 [2], 7.31.
